# Measurements published in patent US11780840B2 (Incyte Corporation, priority 2020, dated 2023).
# pIC50: −log10 of the molar value.
# Assays:
# [1] = biological target: T1, catalytic domain (JH1, amino acids 826-1132) of human JAK2 (Homo sapiens, UniProt O60674); assay: JAK2 LanthaScreen JH1 Binding Assay; settings: JAK2 JH1 (1.5 nM), 50 nM fluorescent JAK2-JH1 tracer, 2 hours at 25° C.; read-out: JH1 BIND
# T1 construct: catalytic domain (JH1, amino acids 826-1132) of human JAK2; FLAG (N); purchased Carna Biosciences 08-445-20N; host or cells: baculovirus expression system
# Description: Example A. JAK2 LanthaScreen JH1 Binding Assay
# JAK2 JH1 binding assay utilizes catalytic domain (JH1, amino acids 826-1132) of human JAK2 expressed as N-terminal FLAG-tagged, biotinylated protein in a baculovirus expression system (Carna Biosciences, Product #08-445-20N). The assay was conducted in black 384-well polystyrene plates in a final reaction volume of 20 μL. JAK2 JH1 (1.5 nM) was incubated with compounds (100 nL serially diluted in DMSO) in the presence of 50 nM fluorescent JAK2-JH1 tracer and 0.5 nM Streptavidin-Tb cryptate (Cisbio Part #610SATLB) in assay buffer (50 mM Tris, pH=7.5, 10 mM MgCl2, 0.01% Brij-35, 0.1% BSA, 1 mM EGTA, 5% Glycerol and 5 mM DTT). Non-specific binding was accessed in the presence of 2 mM ATP. After incubation for 2 hours at 25° C., LanthaScreen signals were read on a PHERAstar FS plate reader (BMG LABTECH). Data was analyzed with IDBS XLfit and GraphPad Prism 5.0 software using a four parameter dose response curve to determine IC50 for each compound.
# [2] = biological target: T2, pseudo-kinase domain (JH2, amino-acids 536-812 with 3 surface mutations W659A, W777A, F794H) of human Wild Type JAK2 (Homo sapiens, UniProt O60674, F794H/W659A/W777A); assay: JAK2 LanthaScreen JH2-WT Binding Assay; settings: JAK2 JH2-WT (0.145 nM), 50 nM Fluorescent JAK2-JH2 Tracer, 1 hour at 25° C.; read-out: JH2 BIND WT
# T2 construct: pseudo-kinase domain (JH2, amino-acids 536-812 with 3 surface mutations W659A, W777A, F794H); His (C); Avi (biotinylated) (C); purchased BPS Bioscience 79463; host or cells: baculovirus expression system
# Description: Example B. JAK2 LanthaScreen JH2-WT Binding Assay
# (§1) JAK2 JH2-WT binding assay utilizes pseudo-kinase domain (JH2, amino-acids 536-812 with 3 surface mutations W659A, W777A, F794H) of human Wild Type JAK2 expressed as C-terminal His-Avi-tagged, biotinylated protein in a baculovirus expression system (BPS Bioscience, Catalog #79463). The assay was conducted in black 384-well polystyrene plates in a final reaction volume of 20 μL. JAK2 JH2-WT (0.145 nM) was incubated with compounds (100 nL serially diluted in DMSO) in the presence of 50 nM Fluorescent JAK2-JH2 Tracer (MedChem Express Catalog #HY-102055) and 0.25 nM Streptavidin-Tb cryptate (Cisbio Part #610SATLB) in assay buffer (50 mM Tris, pH=7.5, 10 mM MgCl2, 0.01% Brij-35, 0.1% BSA, 1 mM EGTA, 5% Glycerol and 5 mM DTT). Non-specific binding was accessed in the presence of 2 mM ATP. After incubation for 1 hour at 25° C., LanthaScreen signals were read on a PHERAstar FS plate reader (BMG LABTECH). Data was analyzed with IDBS XLfit and GraphPad Prism 5.0 software using a four parameter dose response curve to determine IC50 for each compound.
# [3] = biological target: T3, pseudo-kinase domain (JH2, amino-acids 536-812 with 3 surface mutations W659A, W777A, F794H) of human V617F mutant JAK2 (Homo sapiens, UniProt O60674, F794H/V617F/W659A/W777A); assay: JAK2 LanthaScreen JH2-V617F Binding Assay; settings: JAK2 JH2-V617F (0.26 nM), 50 nM Fluorescent JAK2-JH2 Tracer, 1 hour at 25° C.; read-out: JH2 BIND V617F
# T3 construct: pseudo-kinase domain (JH2, amino-acids 536-812 with 3 surface mutations W659A, W777A, F794H); His (C); Avi (biotinylated) (C); purchased BPS Bioscience 79498; host or cells: baculovirus expression system
# Description: Example C. JAK2 LanthaScreen JH2-V617F Binding Assay
# as §1, with “JH2-V617F” for “JH2-WT”, “V617F mutant” for “Wild Type”, “#79498).” for “#79463).”, “JH2-V617F (0.26” for “JH2-WT (0.145”
# T2 sequence (O60674 536-812 W659A/W777A/F794H): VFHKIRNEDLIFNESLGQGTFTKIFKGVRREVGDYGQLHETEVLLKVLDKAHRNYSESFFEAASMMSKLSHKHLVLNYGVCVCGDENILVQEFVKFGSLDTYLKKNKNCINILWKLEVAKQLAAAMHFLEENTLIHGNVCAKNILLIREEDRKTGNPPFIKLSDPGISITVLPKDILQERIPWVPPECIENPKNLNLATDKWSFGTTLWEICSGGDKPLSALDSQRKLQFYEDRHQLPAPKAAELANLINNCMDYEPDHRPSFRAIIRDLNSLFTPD
# T3 sequence (O60674 536-812 V617F/W659A/W777A/F794H): as the sequence (O60674 536-812 W659A/W777A/F794H) above, with V82F counted along it
# T1 sequence (O60674 826-1132): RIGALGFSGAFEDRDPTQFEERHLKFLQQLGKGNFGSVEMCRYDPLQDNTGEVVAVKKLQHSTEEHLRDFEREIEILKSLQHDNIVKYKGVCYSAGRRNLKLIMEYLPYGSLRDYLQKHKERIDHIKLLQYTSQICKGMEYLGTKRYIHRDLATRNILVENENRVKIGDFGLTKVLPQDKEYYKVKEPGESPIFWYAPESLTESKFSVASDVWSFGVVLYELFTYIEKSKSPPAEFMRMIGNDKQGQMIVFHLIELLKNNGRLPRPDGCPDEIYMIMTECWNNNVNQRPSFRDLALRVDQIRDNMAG
Compound,pIC50 [1],pIC50 [2],pIC50 [3]
"Cn1c(=O)n(-c2ccccc2)c2c3cc(-c4ccc(CN5CCC(S(C)(=O)=O)CC5)cc4)[nH]c3ncc21 [Example 1, 3-Methyl-7-(4-((4-(methylsulfonyl)piperidin-1-yl)methyl)phenyl)-1-phenyl-3,6-dihydroimidazo[4,5-d]pyrrolo[2,3-b]pyridin-2(1H)-one]",7.00 to 8.00,7.00 to 8.00,6.30 to 7.00
"COc1ccc(-n2c(=O)n(C)c3cnc4[nH]c(-c5ccc(CN6CCC(S(C)(=O)=O)CC6)cc5)cc4c32)cc1 [Example 2, 1-(4-Methoxyphenyl)-3-methyl-7-(4-((4-(methylsulfonyl)piperidin-1-yl)methyl)phenyl)-3,6-dihydroimidazo[4,5-d]pyrrolo[2,3-b] pyridin-2(1H)-one]",7.00 to 8.00,7.00 to 8.00,6.30 to 7.00
"Cn1c(=O)n(-c2ccc3occc3c2)c2c3cc(-c4ccc(CN5CCC(S(C)(=O)=O)CC5)cc4)[nH]c3ncc21 [Example 3, 1-(Benzofuran-5-yl)-3-methyl-7-(4-((4-(methylsulfonyl)piperidin-1-yl)methyl)phenyl)-3,6-dihydroimidazo[4,5-d]pyrrolo[2,3-b]pyridin-2(1H)-one]",7.00 to 8.00,7.00 to 8.00,7.00 to 8.00
"CS(=O)(=O)C1CCN(Cc2ccc(-c3cc4c(ncc5[nH]c(=O)n(-c6ccccc6)c54)[nH]3)cc2)CC1 [Example 4, 7-(4-((4-(Methylsulfonyl)piperidin-1-yl)methyl)phenyl)-1-phenyl-3,6-dihydroimidazo [4,5-d]pyrrolo[2,3-b]pyridin-2(1H)-one]",7.00 to 8.00,6.30 to 7.00,6.30 to 7.00
"CS(=O)(=O)C1CCN(Cc2ccc(-c3cc4c(ncc5c4n(-c4ccccc4)c(=O)n5CCO)[nH]3)cc2)CC1 [Example 5, 3-(2-Hydroxyethyl)-7-(4-((4-(methylsulfonyl)piperidin-1-yl)methyl)phenyl)-1-phenyl-3,6-dihydroimidazo[4,5-d]pyrrolo[2,3-b]pyridin-2(1H)-one]",6.30 to 7.00,< 6.00,< 6.00
"Cn1c(=O)n(-c2ccccc2)c2c3cc(-c4cnn(C5CCS(=O)(=O)C5)c4)[nH]c3ncc21 (stereo not drawn) [Example 6, 7-(1-(1,1-Dioxidotetrahydro-thiophen-3-yl)-1H-pyrazol-4-yl)-3-methyl-1-phenyl-3,6-dihydroimidazo[4,5-d]pyrrolo[2,3-b]pyridin-2(1H)-one]",7.00 to 8.00,6.30 to 7.00,6.30 to 7.00
"CN(CCCS(C)(=O)=O)Cc1ccc(-c2cc3c(ncc4c3n(-c3ccccc3)c(=O)n4C)[nH]2)cc1 [Example 7, 3-Methyl-7-(4-((methyl(3-(methylsulfonyl)propyl)amino)methyl)phenyl)-1-phenyl-3,6-dihydroimidazo [4,5-d]pyrrolo[2,3-b]pyridin-2(1H)-one]",7.00 to 8.00,6.30 to 7.00,6.30 to 7.00
"Cn1c(=O)n(-c2ccccc2)c2c3cc(-c4ccc(CN5CCC(S(C)(=O)=O)CC5)c(F)c4)[nH]c3ncc21 [Example 8, 7-(3-Fluoro-4-((4-(methylsulfonyl)piperidin-1-yl)methyl)phenyl)-3-methyl-1-phenyl-3,6-dihydroimidazo[4,5-d]pyrrolo[2,3-b]pyridin-2(1H)-one]",7.00 to 8.00,7.00 to 8.00,6.30 to 7.00
"CCN1CCN(c2ccc(-c3cc4c(ncc5c4n(-c4ccccn4)c(=O)n5C)[nH]3)cc2)CC1 [Example 9, 7-(4-(4-Ethylpiperazin-1-yl)phenyl)-3-methyl-1-(pyridin-2-yl)-3,6-dihydroimidazo[4,5-d]pyrrolo[2,3-b]pyridin-2(1H)-one]",< 6.00,< 6.00,< 6.00
"Cn1c(=O)n(C2CCCCC2)c2c3cc(-c4ccc(CN5CCC(S(C)(=O)=O)CC5)cc4)[nH]c3ncc21 [Example 10, 1-Cyclohexyl-3-methyl-7-(4-((4-(methylsulfonyl)piperidin-1-yl)methyl)phenyl)-3,6-dihydroimidazo[4,5-d]pyrrolo[2,3-b]pyridin-2(1H)-one]",7.00 to 8.00,7.00 to 8.00,6.30 to 7.00
"Cn1c(=O)n(C(C)(C)C)c2c3cc(-c4ccc(CN5CCC(S(C)(=O)=O)CC5)cc4)[nH]c3ncc21 [Example 11, 1-(tert-Butyl)-3-methyl-7-(4-((4-(methylsulfonyl)piperidin-1-yl)methyl)phenyl)-3,6-dihydroimidazo[4,5-d]pyrrolo[2,3-b]pyridin-2(1H)-one]",7.00 to 8.00,7.00 to 8.00,7.00 to 8.00
"Cn1c(=O)n(C2CCCCC2)c2c3cc(-c4cnn(CS(C)(=O)=O)c4)[nH]c3ncc21 [Example 12, 1-Cyclohexyl-3-methyl-7-(1-((methylsulfonyl)methyl)-1H-pyrazol-4-yl)-3,6-dihydroimidazo[4,5-d]pyrrolo[2,3-b]pyridin-2(1H)-one]",7.00 to 8.00,7.00 to 8.00,6.30 to 7.00
"CCn1c(=O)n(C2CCCC2)c2c3cc(-c4ccc(CN5CCC(S(C)(=O)=O)CC5)cc4)[nH]c3ncc21 [Example 13, 1-Cyclopentyl-3-ethyl-7-(4-((4-(methylsulfonyl)piperidin-1-yl)methyl)phenyl)-3,6-dihydroimidazo[4,5-d]pyrrolo[2,3-b] pyridin-2(1H)-one]",6.30 to 7.00,< 6.00,< 6.00
"Cn1cc(-c2cc3c(ncc4c3[nH]c(=O)n4C)[nH]2)cn1 [Example 14, 3-Methyl-7-(1-methyl-1H-pyrazol-4-yl)-3,6-dihydroimidazo[4,5-d]pyrrolo[2,3-b]pyridin-2(1H)-one]",6.30 to 7.00,< 6.00,< 6.00
"Cn1c(=O)n(C2CCCOC2)c2c3cc(-c4ccc(CN5CCC(S(C)(=O)=O)CC5)cc4)[nH]c3ncc21 (stereo not drawn) [Example 15, 3-Methyl-7-(4-((4-(methylsulfonyl)piperidin-1-yl)methyl)phenyl)-1-(tetrahydro-2H-pyran-3-yl)-3,6-dihydroimidazo[4,5-d]pyrrolo[2,3-b]pyridin-2(1H)-one]",7.00 to 8.00,6.30 to 7.00,6.30 to 7.00
"CCN1CCN(c2ccc(-c3cc4c(ncc5c4n(Cc4cnn(C)c4)c(=O)n5C)[nH]3)cc2)CC1 [Example 16, 7-(4-(4-Ethylpiperazin-1-yl)phenyl)-3-methyl-1-((1-methyl-1H-pyrazol-4-yl)methyl)-3,6-dihydroimidazo[4,5-d]pyrrolo[2,3-b]pyridin-2(1H)-one]",6.00 to 6.30,< 6.00,< 6.00
